Experimental findings from ChEMBL document CHEMBL1131278, “Synthesis and in vitro cancer cell growth inhibitory activity of monocyclic model compounds containing spongistatin triene side-chains” (Bioorg Med Chem Lett, 1998) are described below.

Assay type in all cases: functional
The subject of assay [1] is FaDu. Put plainly: In vitro growth inhibitory activity against cancer cell line Pharynx-sq FADU. The note with it: Homo sapiens.
For assay [2], the system named is DU-145. Put plainly: In vitro growth inhibitory activity against cancer cell line Prostate DU-145. The settings on record: Homo sapiens.
The subject of assay [3] is SW-1736. Put plainly: In vitro growth inhibitory activity against cancer cell line Thyroid ca SW 1736. The note with it: Homo sapiens.
Assay [4] concerns NCI-H460. Put plainly: In vitro growth inhibitory activity against cancer cell line Lung-NSC NCI-H460. The settings on record: Homo sapiens.
For assay [5], the system named is SK-N-SH. Put plainly: In vitro growth inhibitory activity against cancer cell line Neuroblast SK-N-SH. The note with it: Homo sapiens.
Assay [6] has as its system BXPC-3. Put plainly: In vitro growth inhibitory activity against cancer cell line Pancreas-a BXPC-3. The note with it: Homo sapiens.
The target of assay [7] is Tubulin alpha chain (Sus scrofa, UniProt P02550). Put plainly: Compound was tested for its ability to inhibit the glutamate induced polymerization of tubulin.

SMILES strings stand for the structures. ≈ marks a conversion by molar mass, not a printed value. Bounds are passed on as bounds.

Chain of Tubulin alpha chain (P02550 whole entry, looked up): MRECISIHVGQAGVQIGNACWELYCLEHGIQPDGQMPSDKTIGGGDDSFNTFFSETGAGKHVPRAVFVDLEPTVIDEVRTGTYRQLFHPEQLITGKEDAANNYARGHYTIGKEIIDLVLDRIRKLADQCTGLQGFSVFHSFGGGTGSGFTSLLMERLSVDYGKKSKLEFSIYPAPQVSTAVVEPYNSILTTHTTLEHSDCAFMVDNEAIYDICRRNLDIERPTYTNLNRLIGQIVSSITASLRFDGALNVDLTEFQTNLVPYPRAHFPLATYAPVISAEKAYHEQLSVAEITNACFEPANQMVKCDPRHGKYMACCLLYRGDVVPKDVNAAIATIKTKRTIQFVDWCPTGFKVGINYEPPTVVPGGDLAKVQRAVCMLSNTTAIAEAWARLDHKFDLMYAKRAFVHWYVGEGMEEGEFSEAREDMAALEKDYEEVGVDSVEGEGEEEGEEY

As a reminder, the GI50 is the concentration giving 50% growth inhibition. High values mean less potent growth inhibition, low ones more potent growth inhibition. With `C=C/C=C/[C@@H](O)CC(=C)C[C@H]1O[C@H](OC)[C@H](OCc2ccccc2)[C@@H](OCc2ccccc2)[C@@H]1OCc1ccccc1`, the concentration for 50% growth inhibition (GI50) came out at 0.27 µg/mL (≈ 0.473 µM) in assay [1]; 0.32 µg/mL (≈ 0.561 µM) in assay [2]; 0.7 µg/mL (≈ 1.23 µM) in assay [3]; 0.26 µg/mL (≈ 0.456 µM) in assay [4]; 0.31 µg/mL (≈ 0.543 µM) in assay [5]; 0.25 µg/mL (≈ 0.438 µM) in assay [6].

Regarding `C=C(Cl)/C=C/[C@@H](O)CC(=C)C[C@H]1O[C@H](OC)[C@H](OCc2ccccc2)[C@@H](OCc2ccccc2)[C@@H]1OCc1ccccc1`, the GI50 was 5 µg/mL (≈ 8.26 µM) in assay [1]; over 10 µg/mL in assay [2]; 5.8 µg/mL (≈ 9.58 µM) in assay [3]; 6.6 µg/mL (≈ 10.9 µM) in assay [4]; 2.2 µg/mL (≈ 3.64 µM) in assay [5]; 3.2 µg/mL (≈ 5.29 µM) in assay [6].

Usually IC50 stands for the concentration that gives 50% inhibition. Take `C=C(Cl)/C=C/[C@@H](O)C(C)C(=C)C[C@H]1O[C@@H]2[C@H](C)[C@@H](OC(=O)C[C@H]3C[C@H](OC(C)=O)C[C@@]4(C[C@@](C)(O)C[C@H](CC(=C)[C@@H](C)[C@H](OC(C)=O)[C@H](C)C(=O)C[C@@H]5C[C@H](OC)C[C@@]6(C[C@@H](O)C[C@H](/C=C\CCC[C@H]7O[C@](O)(C[C@H](O)[C@H]7C)[C@H]2O)C6)O5)O4)O3)[C@@H]1O` (stereo partly drawn) [Spongistatin-1]: half-maximal inhibition in assay [7] (IC50) required 3.6 µM.
